Laboratory results taken from patent US20250213482A1, “OXYGEN-ENHANCED ADAPTIVE FUNCTIONAL BEVERAGE FOR ANTI-AGING AND METHOD OF PREPARATION” (priority 2025, published 2025).

What was measured:
[1] = daily intake of NMN for 90 days, long-term safety; assay type: in vivo; conditions: 500 mg daily for 90 days
[2] = PQQ supplementation over an 8-week period; assay type: in vivo; conditions: 8-week period of supplementation
From the text: In another embodiment, PQQ supplementation promotes mitochondrial biogenesis and boosts oxidative metabolism, resulting in increased energy production. […] PQQ acts as a potent antioxidant, reducing oxidative stress by neutralizing harmful free radicals and lowering inflammation. By protecting neurons from oxidative damage, PQQ supplementation contributes to improved cognitive performance, including enhanced memory, attention, and mental clarity.

Row | Structure (SMILES) | impact on blood sugar, liver function, or kidney function [1] | cognitive function [2] | oxidative stress [2]
1 | NC(=O)c1ccc[n+]([C@@H]2O[C@H](COP(=O)([O-])O)[C@@H](O)[C@H]2O)c1 [NMN, nicotinamide mononucleotide] | no impact on blood sugar, liver function, or kidney function |  | 
2 | O=C(O)c1cc(C(=O)O)c2c(n1)C(=O)C(=O)c1cc(C(=O)O)[nH]c1-2 [PQQ, pyrroloquinoline quinone] |  | enhances cognitive function | reduces oxidative stress
